These are literature values, as cited in patent publication US20250090617A1, “FORMULATIONS FOR TREATING OBESITY AND DIABETES AND FOR PROVIDING OTHER HEALTH RELATED BENEFITS” (Healthrite Partners, LLC, priority 2019, published 2025).

Structures are written as SMILES.

This series relates to cellular ATP. The note with it: several studies, including clinical studies in humans.
`Cc1nc(-c2ccc(OCC(C)C)c(C#N)c2)sc1C(=O)O` [Febuxostat]: the “effect on cellular ATP” value is “increase in cellular ATP”.

With `Oc1ncnc2[nH]ncc12` [Allopurinol], the “effect on cellular ATP” value is recorded as “increase in cellular ATP”.

With `OC[C@H]1O[C@@H](n2cnc3c(O)ncnc32)[C@H](O)[C@@H]1O` [Inosine], the “effect on cellular ATP” value is given as “did not affect ATP levels”.
